Data taken from PubChem BioAssay (NCI).
Several values for one entry are separate records, joined by “and”; a condition that tells them apart may be missing. Equal entries are not always repeated.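 The compound was tested at five concentrations on cells cultured in 96-well plates, with a 48-hour exposure period. The concentration for 50% growth inhibition is given as GI50. At the TGI there is no net growth.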

Tests used:
Experiment in all cases: growth of human tumour cells (NCI), 48 h
HL-60(TB) leukemia = test system: HL-60(TB) leukemia
HOP-92 NSCLC = test system: HOP-92 NSCLC
K-562 leukemia = test system: K-562 leukemia
LOX IMVI melanoma = test system: LOX IMVI melanoma
OVCAR-4 ovarian = test system: OVCAR-4 ovarian
SF-268 CNS = test system: SF-268 CNS
SK-MEL-28 melanoma = test system: SK-MEL-28 melanoma
SK-MEL-5 melanoma = test system: SK-MEL-5 melanoma
SN12C renal = test system: SN12C renal
T-47D breast = test system: T-47D breast

SMILES	GI50 (HL-60(TB) leukemia)	TGI (HL-60(TB) leukemia)	GI50 (HOP-92 NSCLC)	TGI (HOP-92 NSCLC)	GI50 (K-562 leukemia)	TGI (K-562 leukemia)	GI50 (LOX IMVI melanoma)	TGI (LOX IMVI melanoma)	GI50 (OVCAR-4 ovarian)	TGI (OVCAR-4 ovarian)	GI50 (SF-268 CNS)	TGI (SF-268 CNS)	GI50 (SK-MEL-28 melanoma)	TGI (SK-MEL-28 melanoma)	GI50 (SK-MEL-5 melanoma)	TGI (SK-MEL-5 melanoma)	GI50 (SN12C renal)	TGI (SN12C renal)	GI50 (T-47D breast)	TGI (T-47D breast)
O=C1OC(C(O)CO)C(O)=C1O (stereo unspecified)	5590 µM and 5090 µM	> 10000 µM	2060 µM and > 10000 µM	4480 µM and > 10000 µM	378 µM and 337 µM	1460 µM and 1210 µM	340 µM and 426 µM	1000 µM and 1460 µM	1840 µM and 1970 µM	3520 µM and 3940 µM	2120 µM and 1960 µM	4020 µM	2530 µM and > 10000 µM	6230 µM and > 10000 µM	1560 µM and > 4190 µM	2910 µM and > 5600 µM	1460 µM and 1540 µM	2810 µM and 3070 µM	2080 µM and 2100 µM	4800 µM and 4380 µM
COc1cc2nc(-c3cc(F)ccc3O)nc(N[C@@H]3CNC[C@H]3C(C)(C)O)c2cc1OC	1.78 µM	4.2 µM	0.465 µM	1.9 µM	1.6 µM	3.94 µM	1.46 µM	2.87 µM	1.88 µM	4.65 µM	1.32 µM	2.75 µM	1.86 µM	3.41 µM	1.74 µM	3.15 µM	1.42 µM	3.12 µM	2.06 µM	3.98 µM
OCCNC1c2cc(Cl)ccc2-c2c(Cl)cc(Cl)cc21 (stereo unspecified)	–	51.4 µM	–	55.8 µM	–	> 100 µM	–	> 100 µM	–	> 100 µM	–	> 100 µM	–	> 100 µM	–	> 100 µM	–	86.3 µM	–	> 100 µM
CCN(CC)CCCCCCNc1cc(OC)cc2cccnc12	1.94 µM	4.03 µM	12.5 µM	27.6 µM	1.74 µM	3.58 µM	1.74 µM	3.31 µM	2.5 µM	9.55 µM	1.72 µM	3.83 µM	2.09 µM	4.53 µM	2.53 µM	6.34 µM	2.29 µM	5 µM	17.5 µM	38.6 µM
Cc1ccc(-c2nc([P+](c3ccccc3)(c3ccccc3)c3ccccc3)c(S(=O)(=O)c3ccc(C)cc3)o2)cc1	1.67 µM	4.38 µM	1.43 µM	3.13 µM	0.312 µM	3.22 µM	0.328 µM	1.3 µM	1.4 µM	2.83 µM	1.55 µM	2.97 µM	1.7 µM	3.09 µM	1.81 µM	3.4 µM	1.06 µM	2.34 µM	1.99 µM	5.23 µM
Nc1nc(Nc2ccccc2SSc2ccccc2Nc2nc(N)nc(C(Cl)(Cl)Cl)n2)nc(C(Cl)(Cl)Cl)n1	2.55 µM	12.1 µM	4.33 µM	21.4 µM	3.93 µM	17.7 µM	1.68 µM	3.13 µM	6.86 µM	45.1 µM	3.1 µM	13.8 µM	10.9 µM	23.6 µM	5.97 µM	32.2 µM	2.46 µM	7.26 µM	2.79 µM	39.2 µM
O=C(O)c1cccc(C(=O)O)c1S(=O)Cc1ccccc1 (stereo unspecified)	–	> 100 µM	–	> 100 µM	–	> 100 µM	–	> 100 µM	–	> 100 µM	–	> 100 µM	–	> 100 µM	–	> 100 µM	–	> 100 µM	–	> 100 µM
COC(=O)c1cc2c(cc1Cl)SC1=NN(C)C(N(C)C)N1S2(=O)=O (stereo unspecified)	> 100 µM	> 100 µM	> 100 µM	> 100 µM	> 100 µM	> 100 µM	> 100 µM	> 100 µM	> 100 µM	> 100 µM	> 100 µM	> 100 µM	> 100 µM	> 100 µM	> 100 µM	> 100 µM	> 100 µM	> 100 µM	> 100 µM	> 100 µM
CCC1(O)C(=O)OCc2c1cc1n(c2=O)Cc2cc3c(NC(=O)CN)cccc3nc2-1 (stereo unspecified)	0.129 µM	1.64 µM	2.47 µM	24.1 µM	1.07 µM	> 100 µM	0.146 µM	4.08 µM	7.53 µM	36.7 µM	0.191 µM	46.5 µM	–	> 100 µM	0.8 µM	4.78 µM	0.102 µM	10.1 µM	0.329 µM	–
CSc1nc2sc3c(c2c(=O)n1-c1ccc(C(C)C)cc1)CCC(=O)C3	2.72 µM	7.57 µM	2.21 µM	5.24 µM	3.02 µM	9.04 µM	1.77 µM	3.27 µM	2.34 µM	5.86 µM	2.18 µM	5.2 µM	2.45 µM	4.62 µM	1.71 µM	3.36 µM	2.45 µM	6.02 µM	1.81 µM	3.74 µM
Cc1cc[n+]2c(c1)-c1cc(C)cc[n+]1CC2	–	> 100 µM	–	> 100 µM	–	> 100 µM	–	> 100 µM	–	> 100 µM	–	> 100 µM	–	> 100 µM	–	> 100 µM	–	> 100 µM	–	> 100 µM
CC1=C(CC(=O)c2cccc([N+](=O)[O-])c2)C(=O)c2ccccc2C1=O	2.88 µM	7.8 µM	4.38 µM	17.7 µM	7.25 µM	38.9 µM	2.22 µM	8.31 µM	1.86 µM	7 µM	9.19 µM	26.9 µM	3.54 µM	13.9 µM	1.67 µM	3.73 µM	2.61 µM	8.39 µM	2.46 µM	8.47 µM
Cc1cc(C)nc(SC2=C(Nc3cc(Cl)ccc3O)C(=O)N(Cc3ccccc3)C2=O)n1	33.3 µM	70 µM	21.9 µM	68.5 µM	5.53 µM	> 160 µM	27.2 µM	89.4 µM	34 µM	> 160 µM	61.2 µM	> 160 µM	42.3 µM	148 µM	38.9 µM	> 160 µM	–	–	15 µM	63.2 µM
